Source: ChEMBL document CHEMBL4837249, “Discovery of Potent Antiallergic Agents Based on an o-Aminopyridinyl Alkynyl Scaffold” (J Med Chem, 2021)

Assays:
[1] = molecular target: T1, Cytoplasmic tyrosine-protein kinase BMX (Homo sapiens) (UniProt P51813); experiment: Inhibition of human full length recombinant Bmx at 5 nM by radiometric scintillation counting analysis relative to control
T1 sequence (whole entry): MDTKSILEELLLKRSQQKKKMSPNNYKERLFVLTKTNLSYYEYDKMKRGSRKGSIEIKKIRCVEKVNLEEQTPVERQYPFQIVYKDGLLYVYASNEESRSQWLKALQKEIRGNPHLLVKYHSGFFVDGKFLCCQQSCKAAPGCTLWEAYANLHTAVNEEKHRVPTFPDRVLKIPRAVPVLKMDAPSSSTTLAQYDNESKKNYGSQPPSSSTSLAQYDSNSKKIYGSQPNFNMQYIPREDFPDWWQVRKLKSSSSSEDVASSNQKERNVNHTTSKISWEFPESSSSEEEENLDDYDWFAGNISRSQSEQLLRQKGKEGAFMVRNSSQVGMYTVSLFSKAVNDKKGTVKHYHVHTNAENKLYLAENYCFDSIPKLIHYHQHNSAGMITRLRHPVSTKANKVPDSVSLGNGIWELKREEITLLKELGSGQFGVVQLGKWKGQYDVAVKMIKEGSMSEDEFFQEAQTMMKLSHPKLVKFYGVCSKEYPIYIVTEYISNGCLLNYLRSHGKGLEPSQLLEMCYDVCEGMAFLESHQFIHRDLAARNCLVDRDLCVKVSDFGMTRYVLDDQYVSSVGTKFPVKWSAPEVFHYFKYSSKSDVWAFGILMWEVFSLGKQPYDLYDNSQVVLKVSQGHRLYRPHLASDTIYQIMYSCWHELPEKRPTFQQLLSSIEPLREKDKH

[2] = molecular target: Tyrosine-protein kinase CSK (Homo sapiens, UniProt P41240); experiment: Inhibition of human full length recombinant CSK at 5 nM by radiometric scintillation counting analysis relative to control
[3] = molecular target: T2, Tyrosine-protein kinase Fyn (Homo sapiens, UniProt P06241); experiment: Inhibition of human recombinant Fyn (218 to end) at 5 nM incubated for 15 mins relative to control
[4] = molecular target: T3, Tyrosine-protein kinase ITK/TSK (Homo sapiens) (UniProt Q08881); experiment: Inhibition of human recombinant ITK (352 to 617) at 5 nM by radiometric scintillation counting analysis relative to control
T3 sequence (whole entry): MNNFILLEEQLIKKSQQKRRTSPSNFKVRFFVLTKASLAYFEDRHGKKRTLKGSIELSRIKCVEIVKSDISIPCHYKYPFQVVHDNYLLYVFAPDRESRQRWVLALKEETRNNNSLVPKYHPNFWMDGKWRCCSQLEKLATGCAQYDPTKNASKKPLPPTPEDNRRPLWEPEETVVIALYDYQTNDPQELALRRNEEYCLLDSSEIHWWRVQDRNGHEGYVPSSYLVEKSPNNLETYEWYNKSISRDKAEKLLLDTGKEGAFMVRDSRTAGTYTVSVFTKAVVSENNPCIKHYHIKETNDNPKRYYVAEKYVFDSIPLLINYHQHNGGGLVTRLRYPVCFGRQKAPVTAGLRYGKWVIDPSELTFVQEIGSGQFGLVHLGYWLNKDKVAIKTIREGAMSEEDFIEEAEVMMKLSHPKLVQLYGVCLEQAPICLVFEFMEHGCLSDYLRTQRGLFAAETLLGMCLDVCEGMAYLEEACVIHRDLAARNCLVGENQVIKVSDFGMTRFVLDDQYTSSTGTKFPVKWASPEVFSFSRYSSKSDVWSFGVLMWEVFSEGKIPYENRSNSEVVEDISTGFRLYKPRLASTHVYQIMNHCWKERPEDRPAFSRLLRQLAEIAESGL

[5] = molecular target: T4, Tyrosine-protein kinase Srms (Homo sapiens, UniProt Q9H3Y6); experiment: Inhibition of human SRMS at 5 nM by radiometric scintillation counting analysis relative to control
[6] = molecular target: Mast/stem cell growth factor receptor Kit (Homo sapiens) (UniProt P10721); experiment: Inhibition of human recombinant c-Kit at 50 nM by radiometric scintillation counting analysis relative to control
[7] = molecular target: T5, Tyrosine-protein kinase Fgr (Homo sapiens, UniProt P09769); experiment: Inhibition of human recombinant FGR (456 to 770) at 50 nM by radiometric scintillation counting analysis relative to control
[8] = molecular target: Macrophage colony-stimulating factor 1 receptor (Homo sapiens, UniProt P07333); experiment: Inhibition of human recombinant CSF1R using ATP/Ulight-TK peptide at 50 nM incubated for 15 mins relative to control
[9] = molecular target: Tyrosine-protein kinase HCK (Homo sapiens, UniProt P08631); experiment: Inhibition of human recombinant HCK (230 to 497) at 50 nM by radiometric scintillation counting analysis relative to control
[10] = molecular target: T6, Proto-oncogene tyrosine-protein kinase Src (Homo sapiens, UniProt P12931); experiment: Inhibition of human recombinant Src (1-530) at 50 nM by radiometric scintillation counting analysis relative to control
[11] = molecular target: T7, Tyrosine-protein kinase Yes (Homo sapiens, UniProt P07947); experiment: Inhibition of human full length recombinant Yes at 50 nM by radiometric scintillation counting analysis relative to control
[12] = molecular target: T5, Tyrosine-protein kinase Fgr; experiment: Inhibition of human recombinant FGR (456 to 770) at 500 nM by radiometric scintillation counting analysis relative to control
[13] = molecular target: T2, Tyrosine-protein kinase Fyn; experiment: Inhibition of human recombinant Fyn (218 to end) at 500 nM incubated for 15 mins relative to control
[14] = molecular target: Platelet-derived growth factor receptor alpha (Homo sapiens) (UniProt P16234); experiment: Inhibition of human recombinant PDGFRalpha (550 to end) at 500 nM by radiometric scintillation counting analysis relative to control
[15] = molecular target: Platelet-derived growth factor receptor beta (Homo sapiens) (UniProt P09619); experiment: Inhibition of human recombinant PDGFRbeta (557 to end) at 500 nM by radiometric scintillation counting analysis relative to control
[16] = molecular target: T6, Proto-oncogene tyrosine-protein kinase Src; experiment: Inhibition of human recombinant Src (1-530) at 500 nM by radiometric scintillation counting analysis relative to control
[17] = molecular target: T4, Tyrosine-protein kinase Srms; experiment: Inhibition of human SRMS at 500 nM by radiometric scintillation counting analysis relative to control
[18] = molecular target: T7, Tyrosine-protein kinase Yes; experiment: Inhibition of human full length recombinant Yes at 500 nM by radiometric scintillation counting analysis relative to control

Sequence of Macrophage colony-stimulating factor 1 receptor (P07333 whole entry): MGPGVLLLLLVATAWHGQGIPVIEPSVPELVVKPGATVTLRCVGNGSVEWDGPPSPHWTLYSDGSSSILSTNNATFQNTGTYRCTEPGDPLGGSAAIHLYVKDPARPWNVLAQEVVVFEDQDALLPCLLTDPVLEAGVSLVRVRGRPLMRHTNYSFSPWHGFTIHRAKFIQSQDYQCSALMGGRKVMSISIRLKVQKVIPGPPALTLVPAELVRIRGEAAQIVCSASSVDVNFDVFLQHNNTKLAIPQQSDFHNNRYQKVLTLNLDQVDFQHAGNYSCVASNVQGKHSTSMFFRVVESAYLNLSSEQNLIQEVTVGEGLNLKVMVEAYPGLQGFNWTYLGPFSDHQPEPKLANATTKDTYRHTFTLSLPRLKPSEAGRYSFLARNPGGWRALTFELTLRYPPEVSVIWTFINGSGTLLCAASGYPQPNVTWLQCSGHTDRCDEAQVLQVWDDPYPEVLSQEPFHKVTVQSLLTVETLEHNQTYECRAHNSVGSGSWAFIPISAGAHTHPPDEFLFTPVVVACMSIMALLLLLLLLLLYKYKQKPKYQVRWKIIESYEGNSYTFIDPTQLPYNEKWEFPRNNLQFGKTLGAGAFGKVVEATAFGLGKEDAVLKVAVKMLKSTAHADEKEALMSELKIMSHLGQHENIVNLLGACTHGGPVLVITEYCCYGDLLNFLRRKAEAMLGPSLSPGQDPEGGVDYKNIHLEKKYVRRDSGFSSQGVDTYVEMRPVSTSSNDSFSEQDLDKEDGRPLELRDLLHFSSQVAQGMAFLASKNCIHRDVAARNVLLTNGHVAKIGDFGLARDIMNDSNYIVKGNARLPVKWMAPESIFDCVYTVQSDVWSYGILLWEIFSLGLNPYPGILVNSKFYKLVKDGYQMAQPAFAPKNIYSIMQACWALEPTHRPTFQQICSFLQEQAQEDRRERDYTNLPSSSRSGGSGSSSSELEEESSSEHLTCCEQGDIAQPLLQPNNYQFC
T4 sequence (Q9H3Y6 whole entry): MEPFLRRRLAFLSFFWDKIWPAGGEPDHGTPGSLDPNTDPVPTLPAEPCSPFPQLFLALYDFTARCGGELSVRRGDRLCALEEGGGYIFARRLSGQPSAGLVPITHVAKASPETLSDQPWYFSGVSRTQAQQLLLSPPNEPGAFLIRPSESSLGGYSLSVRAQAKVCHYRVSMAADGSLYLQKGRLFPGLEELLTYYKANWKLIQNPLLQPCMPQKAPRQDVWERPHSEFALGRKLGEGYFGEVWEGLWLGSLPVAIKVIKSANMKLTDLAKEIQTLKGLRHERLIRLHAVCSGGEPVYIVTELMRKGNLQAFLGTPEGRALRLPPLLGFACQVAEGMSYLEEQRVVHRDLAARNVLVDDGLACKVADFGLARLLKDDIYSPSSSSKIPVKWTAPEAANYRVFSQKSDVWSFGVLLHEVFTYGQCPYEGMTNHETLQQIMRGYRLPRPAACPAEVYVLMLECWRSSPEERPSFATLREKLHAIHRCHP
Sequence of Tyrosine-protein kinase HCK (P08631 2-526 limits assumed): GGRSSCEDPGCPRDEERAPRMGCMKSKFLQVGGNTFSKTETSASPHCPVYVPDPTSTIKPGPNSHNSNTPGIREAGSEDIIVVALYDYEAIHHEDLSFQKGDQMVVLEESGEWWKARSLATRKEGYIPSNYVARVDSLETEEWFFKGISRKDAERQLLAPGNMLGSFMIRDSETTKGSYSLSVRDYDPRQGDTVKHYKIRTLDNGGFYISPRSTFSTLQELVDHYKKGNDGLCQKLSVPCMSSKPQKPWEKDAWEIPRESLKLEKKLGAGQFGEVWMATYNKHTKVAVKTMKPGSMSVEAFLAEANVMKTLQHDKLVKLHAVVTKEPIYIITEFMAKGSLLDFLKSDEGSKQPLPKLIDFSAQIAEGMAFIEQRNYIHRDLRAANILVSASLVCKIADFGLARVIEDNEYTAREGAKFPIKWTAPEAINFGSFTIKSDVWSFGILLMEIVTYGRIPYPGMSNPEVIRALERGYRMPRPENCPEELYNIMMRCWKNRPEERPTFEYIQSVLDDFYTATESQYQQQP
T5 sequence (P09769 2-529 limits assumed): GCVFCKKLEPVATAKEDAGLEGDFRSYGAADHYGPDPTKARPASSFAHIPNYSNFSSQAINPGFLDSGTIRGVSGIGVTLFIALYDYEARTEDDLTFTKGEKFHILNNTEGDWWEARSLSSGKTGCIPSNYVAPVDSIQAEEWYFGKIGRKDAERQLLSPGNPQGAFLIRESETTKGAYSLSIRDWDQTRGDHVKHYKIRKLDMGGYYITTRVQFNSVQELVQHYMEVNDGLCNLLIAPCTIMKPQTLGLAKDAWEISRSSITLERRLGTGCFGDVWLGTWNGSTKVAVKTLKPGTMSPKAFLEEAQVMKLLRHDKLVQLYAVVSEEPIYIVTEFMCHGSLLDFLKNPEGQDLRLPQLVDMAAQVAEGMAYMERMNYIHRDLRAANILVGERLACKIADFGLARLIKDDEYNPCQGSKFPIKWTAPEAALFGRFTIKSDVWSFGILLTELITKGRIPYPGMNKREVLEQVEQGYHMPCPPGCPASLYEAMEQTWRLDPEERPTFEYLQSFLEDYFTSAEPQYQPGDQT
T7 sequence (P07947 2-543 limits assumed): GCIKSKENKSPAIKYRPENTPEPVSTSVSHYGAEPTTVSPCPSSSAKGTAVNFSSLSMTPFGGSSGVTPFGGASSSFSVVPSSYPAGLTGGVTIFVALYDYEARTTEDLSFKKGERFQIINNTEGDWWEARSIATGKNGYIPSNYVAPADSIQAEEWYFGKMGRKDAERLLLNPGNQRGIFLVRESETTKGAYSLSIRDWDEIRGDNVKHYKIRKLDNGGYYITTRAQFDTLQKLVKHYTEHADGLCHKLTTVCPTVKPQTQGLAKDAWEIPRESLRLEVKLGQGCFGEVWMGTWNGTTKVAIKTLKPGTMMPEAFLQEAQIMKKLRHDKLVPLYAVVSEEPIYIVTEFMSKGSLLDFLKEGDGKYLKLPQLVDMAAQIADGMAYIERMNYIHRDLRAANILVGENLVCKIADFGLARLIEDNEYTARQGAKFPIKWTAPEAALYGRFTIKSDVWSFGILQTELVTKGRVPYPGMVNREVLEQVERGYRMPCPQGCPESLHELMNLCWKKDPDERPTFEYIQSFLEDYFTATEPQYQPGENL
T2 sequence (P06241 2-537 limits assumed): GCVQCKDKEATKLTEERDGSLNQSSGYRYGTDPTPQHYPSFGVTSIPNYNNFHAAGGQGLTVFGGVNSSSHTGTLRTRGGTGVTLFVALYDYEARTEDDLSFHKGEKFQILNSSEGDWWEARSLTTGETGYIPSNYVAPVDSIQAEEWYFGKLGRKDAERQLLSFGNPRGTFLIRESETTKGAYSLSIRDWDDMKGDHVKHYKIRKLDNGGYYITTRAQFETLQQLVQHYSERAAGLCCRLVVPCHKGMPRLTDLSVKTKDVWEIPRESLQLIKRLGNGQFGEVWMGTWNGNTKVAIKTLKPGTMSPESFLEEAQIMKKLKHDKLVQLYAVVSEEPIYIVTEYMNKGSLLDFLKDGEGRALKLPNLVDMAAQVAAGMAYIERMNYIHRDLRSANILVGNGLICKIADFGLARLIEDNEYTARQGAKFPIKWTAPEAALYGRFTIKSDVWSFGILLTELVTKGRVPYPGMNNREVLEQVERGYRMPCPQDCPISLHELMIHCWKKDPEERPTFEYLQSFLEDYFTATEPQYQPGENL
Sequence of Platelet-derived growth factor receptor beta (Homo sapiens) (P09619 whole entry): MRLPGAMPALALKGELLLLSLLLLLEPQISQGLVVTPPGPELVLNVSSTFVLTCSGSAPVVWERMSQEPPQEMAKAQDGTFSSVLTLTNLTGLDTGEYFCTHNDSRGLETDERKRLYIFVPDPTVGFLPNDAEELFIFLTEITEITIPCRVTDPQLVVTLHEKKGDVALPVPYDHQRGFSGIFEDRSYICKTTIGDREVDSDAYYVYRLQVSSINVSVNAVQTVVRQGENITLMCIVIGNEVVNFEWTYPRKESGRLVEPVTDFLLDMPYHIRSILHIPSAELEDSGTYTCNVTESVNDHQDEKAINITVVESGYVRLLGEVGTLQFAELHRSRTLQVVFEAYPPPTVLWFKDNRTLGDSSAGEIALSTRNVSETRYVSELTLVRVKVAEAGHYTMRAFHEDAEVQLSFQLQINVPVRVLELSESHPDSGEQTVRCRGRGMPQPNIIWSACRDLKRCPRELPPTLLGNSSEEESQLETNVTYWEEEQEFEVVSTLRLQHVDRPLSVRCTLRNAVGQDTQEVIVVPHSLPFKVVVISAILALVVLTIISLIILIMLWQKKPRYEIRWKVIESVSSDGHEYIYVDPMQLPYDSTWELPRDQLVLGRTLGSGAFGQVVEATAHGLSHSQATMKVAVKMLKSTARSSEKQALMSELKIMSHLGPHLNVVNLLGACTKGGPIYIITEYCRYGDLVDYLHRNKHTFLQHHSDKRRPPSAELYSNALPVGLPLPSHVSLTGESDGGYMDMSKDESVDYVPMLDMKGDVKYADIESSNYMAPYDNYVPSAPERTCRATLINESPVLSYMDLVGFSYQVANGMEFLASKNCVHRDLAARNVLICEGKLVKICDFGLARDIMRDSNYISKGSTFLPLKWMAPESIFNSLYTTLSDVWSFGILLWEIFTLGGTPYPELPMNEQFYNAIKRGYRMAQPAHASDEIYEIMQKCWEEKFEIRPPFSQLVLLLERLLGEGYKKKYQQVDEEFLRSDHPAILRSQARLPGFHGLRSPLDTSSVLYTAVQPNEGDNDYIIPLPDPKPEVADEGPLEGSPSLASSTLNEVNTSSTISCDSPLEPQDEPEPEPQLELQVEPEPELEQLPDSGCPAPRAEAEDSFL

SMILES	inhibition [1] [%]	inhibition [2] [%]	inhibition [3] [%]	inhibition [4] [%]	inhibition [5] [%]	inhibition [6] [%]	inhibition [7] [%]	inhibition [8] [%]	inhibition [9] [%]	inhibition [10] [%]	inhibition [11] [%]	inhibition [12] [%]	inhibition [13] [%]	inhibition [14] [%]	inhibition [15] [%]	inhibition [16] [%]	inhibition [17] [%]	inhibition [18] [%]
Cc1ccc(C(=O)Nc2cc(C(F)(F)F)cc(C(F)(F)F)c2)cc1C#Cc1cc(-c2cnn(C)c2)cnc1N	16	22	29	-8	20	-10	71	83	92	98	14	101	97	18	12	92	86	98
Cc1ccc(C(=O)Nc2ccc(Cl)cc2Cl)cc1C#Cc1cc(-c2cnn(C)c2)cnc1N	21	22	2	-5	7	21	20	94	64	49	18	46	64	94	83	79	13	39
Cc1ccc(C(=O)Nc2ccc(OC(F)(F)F)cc2)cc1C#Cc1cc(-c2cnn(C)c2)cnc1N	-6	2	21	0	-1	15	34	69	92	95	39	77	96	82	71	96	54	94
